# In paper PMC7495481, “Sequence specificity analysis of the SETD2 protein lysine methyltransferase and discovery of a SETD2 super-substrate” (Communications Biology, 2020):
# Where “and” joins values, the source holds several entries; their conditions need not be identical. Identical values can stand only once.
# T1: SETD2 (Homo sapiens, UniProt Q9BYW2)
# T1 construct: SETD2 catalytic SET domain (amino acids 1347–1711, UniProt No: Q9BYW2); made in house; host or cells: E. coli
# T1 sequence (Q9BYW2 1347-1711): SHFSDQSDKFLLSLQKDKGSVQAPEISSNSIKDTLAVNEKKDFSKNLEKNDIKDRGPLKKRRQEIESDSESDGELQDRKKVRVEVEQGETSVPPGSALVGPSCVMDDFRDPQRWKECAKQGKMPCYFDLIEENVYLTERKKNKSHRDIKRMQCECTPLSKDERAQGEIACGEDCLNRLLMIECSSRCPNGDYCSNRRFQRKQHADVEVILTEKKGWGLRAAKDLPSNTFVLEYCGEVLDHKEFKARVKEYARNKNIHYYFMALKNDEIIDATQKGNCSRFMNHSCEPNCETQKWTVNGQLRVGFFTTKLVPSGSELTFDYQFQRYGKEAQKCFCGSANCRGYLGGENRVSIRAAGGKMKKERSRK
# T2: His6-tagged catalytic SET domain of SETD2 (amino acids 1347–1711) (human, UniProt Q9BYW2 1347-1711)
# T2 construct: also called SET-domain containing protein 2; KMT3A; source: E. coli, purified (Ni-NTA beads)
# T2 sequence (looked up): T1 sequence (Q9BYW2 1347-1711)
# B1: ssK36M peptide (29–43), super-substrate peptide with the target lysine changed to methionine (peptide)
# peptide: APRFGGVMRPNRYRP
# notes: histone H3 residues 29–43 (UniProt P68431 printed for the parent H3K36 peptide) with the four super-substrate exchanges and K36M; source: synthetic peptide, bought: Innovative Peptide Solutions (Berlin)
# B2: H3K36M (27–43) peptide (peptide, UniProt P68431 28-44, looked up)
# peptide: KSAPATGGVMKPHRYRP
# notes: histone H3 residues 27–43 with K36M (the oncohistone mutation); source: synthetic peptide, bought: Intavis AG (Köln)
# Assays:
# SETD2 [1] = target: T1, SETD2; experiment: Peptide SPOT array target lysine methylation of selected non-histone peptides (Fig. 3b); format: biochemical; conditions: Exp1–Exp3, 3–6 µM SETD2, 0.76 µM AdoMet, 60 min, pH 9
# Excerpt: However, we could identify 166 possible targets, which contain partial matches to the substrate specificity profile. The possible methylation of these 166 putative substrates was investigated at the peptide level. For this, fifteen amino acid long peptides containing the sequence of the non-histone targets surrounding the predicted target lysine were synthesized on a membrane. The H3K36 (29–43) peptide (spots A1, I9), the super-substrate peptide (spots A3, I11) and the corresponding lysine to alanine mutation peptides (spot A2, I10, and A4, I12) were included as positive and negative controls (Fig. 3a, Supplementary Fig. 4 and Supplementary Table 2). The methylation reactions and the detection of the methylation signals were performed in duplicates as described above. We observed that all of the investigated peptides were more weakly methylated than the super-substrate peptide. […] In the next step, 20 of the peptides were selected for further investigation based on the methylation intensity and the known functions of the proteins to confirm the methylation at the predicted target site. The peptides were synthesized on another membrane, now including the target lysine to alanine mutation control peptides in each case. The methylation reactions and the detection of the signal were conducted as described above (Fig. 3b, Supplementary Fig. 5 and Supplementary Table 3).
# Fig. 3 Identification of non-histone substrates of SETD2. a Candidate non-histone peptide substrates were identified in the human proteome based on the SETD2 super-substrate specificity profile. The peptides were synthesized on a peptide SPOT array (Supplementary Table 2) and methylated by SETD2. As controls, the H3K36, H3K36A, ssK36 and ssK36A peptides were included on spots A1–A4 and I9–I12. The autoradiography image is an example of the obtained results. […] The quantification of the data of two experiments is shown in Supplementary Fig. 4. b Analysis of target lysine methylation of selected non-histone substrate peptides. Peptide SPOT arrays were synthesized containing the non-histone peptide substrates identified in panel A in addition to the lysine to alanine mutations presented on the array as every second spot (Supplementary Table 3). As controls, the H3K36, H3K36A, ssK36, and ssK36A mutant peptides were included on spot A1–A4 and C5–C8. The autoradiography image is an example of the obtained results. The quantification of the data of three experiments is shown in Supplementary Fig. 5. Peptides selected for furhter analysis are highlighted by blue circles. c Protein methylation of FBN1 and confirmation of the target lysine methylation. Both wild type (WT) and mutant (K666R) FBN1 were purified and equal amounts were methylated by SETD2 (2 µM). […] The size of FBN1 is indicated by an asterisk.
# (§1) Peptide arrays containing fifteen amino acid long peptides were synthesized using the SPOT synthesis method[48] with an Autospot peptide array synthesizer (Intavis AG, Köln, Germany). After synthesis, the obtained membranes were pre-incubated in methylation buffer (20 mM Tris/HCl pH 9, 0.01% Triton X-100, 10 mM DTT, 1.5 mM MgCl2) for 5 min on a shaker. Thereafter, the membranes were incubated in methylation buffer supplemented with 0.76 µM radioactively labeled AdoMet (PerkinElmer) and 3–6 µM SETD2 enzyme for 60 min on a shaker. After methylation, the membranes were washed 5 times for 5 min in wash buffer (100 mM NH4HCO3, 1% SDS) and incubated in amplify NAMP100V (GE Healthcare) for 5 min. This was followed by the exposure of the membranes to a hyperfilm^TM high performance autoradiography (GE Healthcare) film at −80 °C in the dark. The films were developed with an Optimax Typ TR machine after different exposue times. For quantification the signal intensities were measured with the Phoretix^TM software and analyzed with Microsoft Excel.
# SETD2 [2] = target: T1, SETD2; experiment: Peptide SPOT array methylation of reported SETD2 substrates; format: biochemical; conditions: SPOT array on cellulose membrane; 0.76 µM radioactive AdoMet, 3–6 µM SETD2, 60 min, pH 9; autoradiography
# Experimental: Next, the SETD2 activity was tested on peptide SPOT arrays containing fifteen amino acid long peptides immobilized on a cellulose membrane. As reported SETD2 substrates, the H3K36 (29–43), α -tubulin (33–47) and STAT1 (518–532) peptides (with the target lysine centered in each case) were included, and peptides with the corresponding target lysine mutated to alanine were used as negative controls. The peptide array was incubated in methylation buffer supplemented with SETD2 and radioactively labeled AdoMet. […] Methylation of the previously reported non-histone substrates α -tubulin and STAT1 was not detectable at the peptide level and, therefore, they were excluded from further investigation.
# as §1
# Supplementary Fig. 1: SETD2 protein and catalytic activity. a Purified His6-tagged SETD2 SET domain (1347-1711) was separated on an SDS-gel and […]
# stained with Coomassie BB. […]
# tubulin (33-47), STAT1 (518-532) and their corresponding target lysine to alanine mutant peptides were synthesized on a cellulose membrane. The membrane was incubated in methylation buffer supplemented with radioactively labeled AdoMet and SETD2. The signal of the transferred radioactive methyl groups was visualized by autoradiography.
# SETD2 [3] = target: T1, SETD2; experiment: Peptide SPOT array methylation of H3K36 (29–43) variants, super-substrate design (Fig. 2a); format: biochemical; conditions: SPOT array; 0.76 µM radioactive AdoMet, 3–6 µM SETD2, 60 min, pH 9; autoradiography
# Excerpt: Based on these observations, we aimed to explore, if better substrates than H3K36 can be designed for SETD2. We synthesized peptide SPOT arrays including H3K36 (29–43) as a positive control and the H3K36A mutant as a negative control, in which up to 5 combined mutations were systematically introduced that converted the original H3K36 residues into residues that are more favored (Fig. 2a and Supplementary Table 1). This peptide array was methylated by SETD2 as described above and the methylation signal was captured by autoradiography.
# Fig. 2 Design of an optimized SETD2 peptide substrate and analysis of its methylation. a Variants of the H3K36 (29–43) peptide containing up to five mutations (Supplementary Table 1) were synthesized on a cellulose membrane and methylated by SETD2. The signal of the transferred radioactive methyl groups was detected by autoradiography. Spots A1 and B15 contain the H3K36 sequence, A2 and B16 the H3K36A peptide. Two films with different exposure times are shown to visualize weaker methylated spots as well. b Comparison of the methylation of purified super-substrate (ssK36) and the H3K36 peptides. […] Methylation reactions were conducted using 20 µM peptide and 6 µM enzyme. The lower panels display autoradiography films after different exposure times allowing to compare the methylation levels of the different samples. For comparison, different dilutions of the methylated ssK36 were loaded as indicated. c Time course of ssK36 peptide methylation determined under single turnover conditions using 5 µM substrate and 6 µM enzyme. […] The gels with the radioactive ssK36 (5 µl loaded per well) and H3K36 peptides (20 µl loaded per well) were exposed together to the same x-ray film. […] An enlargement of the H3K36 data with adjusted y-axis scale is shown in Supplementary Fig. 3d.
# as §1
# SETD2 [4] = target: T1, SETD2; experiment: Protein methylation assay (non-histone proteins, GST fusions, nucleosomes, H3.1); format: biochemical; conditions: based on own results and literature data, ref [18],[19]
# Excerpt: The 9 new putative non-histone substrates of SETD2 were cloned into a pGEX-6p2 bacterial expression vector for protein expression. Six of them could be expressed and purified through glutathione sepharose beads (Table 1). For comparison, the super-substrate sequence was cloned with a […] GST-tag (ssK36-GST) to mimic the natural setting of the H3K36 site in the N-terminal tail of histone 3. Similar amounts of the purified non-histone substrate proteins and the ssK36-GST protein were loaded on an SDS-gel and stained with Coomassie BB (Supplementary Fig. 6a). Afterward protein methylation reactions were conducted using radioactively labeled AdoMet and the radioactive signal of the methyl group transfer was detected by autoradiography (Supplementary Fig. 6b). […] Next, we aimed to confirm the FBN1 methylation at the predicated target lysine K666. For this, a K666R mutation was introduced and the wildtype and mutant FBN1 proteins were purified by affinity chromatography. […]
# Protein methylation reactions were performed in 40 µl methylation buffer containing 0.76 µM radioactive labeled AdoMet (PerkinElmer), approximately 20 µg of substrate protein and 6 µM SETD2 enzyme (if not otherwise indicated) for 3 h at 25 °C. […] The radioactive methylation signal was detected by a hyperfilm^TM high performance autoradiography film (GE Healthcare) at −80 °C in the dark. […]
# [5] = target: T2, His6-tagged catalytic SET domain of …; experiment: enzyme inhibition kinetics (competitive inhibition of peptide methylation); 20 µM ssK36 (29–43) substrate peptide, 6 µM SETD2, inhibitor peptide 0 to 320 µM, methylation buffer (20 mM Tris/HCl pH 9, 0.01% Triton X-100, 10 mM DTT, 1.5 mM MgCl2) with 0.76 µM radioactively labeled AdoMet, 25 °C, Tricine-SDS-PAGE and autoradiography; global fit to a competitive inhibition steady-state model; conditions: both partners purified
Molecule,"Relative methylation signal, Average (SETD2 [1])",peptide spot methylation signal (SETD2 [2]),other results
"APATGGVAKPHRYRP [K36A, H3K36A mutant peptide, negative control, reference compound]",0.2341 and 0.1607,did not show a detectable peptide methylation signal,
"APATGGVKKPHRYRP [H3K36, H3K36 (29–43) peptide on SPOT array, reference compound]",0.4318 and 0.3786,detectable methylation,
APRFGGVKKPHRYRP [A31R/T32F],,,peptide array methylation of H3K36 variants (in words) (SETD2 [3]): stepwise improvement of activity with increasing number of mutations
APRFGGVKRPHRYRP [A31R/T32F/K37R],,,peptide array methylation of H3K36 variants (in words) (SETD2 [3]): stepwise improvement of activity with increasing number of mutations
"DGQMPSDKTIGGGDD [α-tubulin (33–47), reported SETD2 substrate peptide, K40]",,did not show a detectable peptide methylation signal,
"STCYGGYKRGQCIKP [FBN1, Fibrillin-1 peptide, target lysine 666]",0.6365,,"comparison of protein methylation efficiency (SETD2 [4]): more efficiently methylated than H3, α -tubulin and STAT1"
B1,,,Ki [5]: 128 µM
B2,,,Ki [5]: 447 µM
